Results published in US20100305134A1, “SPECIFIC INHIBITORS OF PTERIDINE REDUCTASE WITH ANTIPARASITIC ACTION” (priority 2007, published 2010).
Where two headings read alike, the source gives them in different places.

Legend:
h DHFR = target: T1, h DHFR (Homo sapiens, UniProt P00374); test: DHFR enzyme inhibition (standard DHFR assay), human DHFR; type: biochemical
T1 construct: made in house
T1 sequence (P00374 1-187): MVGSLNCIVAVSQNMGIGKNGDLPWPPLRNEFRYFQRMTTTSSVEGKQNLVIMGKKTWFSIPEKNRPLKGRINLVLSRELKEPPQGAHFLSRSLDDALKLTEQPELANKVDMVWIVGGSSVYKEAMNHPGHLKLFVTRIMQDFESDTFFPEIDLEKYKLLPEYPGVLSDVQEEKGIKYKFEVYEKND
Experimental: (§1) The compounds of the invention were tested against the following enzyme library: TcPTR1, LmPTR1, LmDHFR, LcTS, EcTS, CnTS, hTS, DHFR. The proteins were all purified following the known procedures (ref). The enzymes were purified through chromatographic methods that usually require a prepurification step using a ion exchange resin, than the eluted active fractions were pooled and a second purification step follows were a hydrophobic resin and sometimes a gel filtration resin is used as the final step. The protein is characterized using Mass Spectrometry and Specific Activity and concentration is detected. Moreover Km for the substrates is useful to set up the inhibition experiments. In general the protein is stored at −80° C. and defrozen in small quantities when necessary.

LmDHFR = target: T2, LmDHFR (Leishmania major, UniProt P07382); test: biochemical; details: NI means no inhibition at 190 μM; read-out: DHFR Lm Ki
T2 construct: made in house
Experimental: as §1

Lm TS = target: T3, Lm TS (Leishmania major, UniProt P07382); test: biochemical; type: biochemical
T3 construct: made in house
Experimental: as §1

TcPTR1 = TcPTR1 (Trypanosoma cruzi, UniProt O44029); test: PTR1 enzyme inhibition (dihydrofolic acid substrate, NADPH cofactor), TcPTR1; type: biochemical
Experimental: as §1

hTS = target: T4, hTS (Homo sapiens, UniProt P04818); test: TS enzyme inhibition (standard TS assay), human TS; type: biochemical; details: NI means no inhibition at 190 μM; read-out: TS h Ki
T4 construct: made in house
Experimental: as §1

[1] = test system: PTR1 overexpressing lines; test: Parasite growth inhibition, PTR1 overexpressing lines; type: cell-based; details: ratio of EC50 from PTR1 overexpressing lines to EC50 from WT lines
[2] = test system: Tripanosoma cruzi amastigote form; test: Intracellular growth of Tripanosoma cruzi amastigote form; type: cell-based; set-up: unit of the concentration uncertain; details: 72 h exposure, control 100
LmPTR1 = target: T5, LmPTR1 (Leishmania major, UniProt Q01782); test: biochemical; type: biochemical; details: NI means no inhibition at 190 μM; read-out: PTR1 Lm Ki
T5 construct: made in house
T5 sequence (Q01782 1-288): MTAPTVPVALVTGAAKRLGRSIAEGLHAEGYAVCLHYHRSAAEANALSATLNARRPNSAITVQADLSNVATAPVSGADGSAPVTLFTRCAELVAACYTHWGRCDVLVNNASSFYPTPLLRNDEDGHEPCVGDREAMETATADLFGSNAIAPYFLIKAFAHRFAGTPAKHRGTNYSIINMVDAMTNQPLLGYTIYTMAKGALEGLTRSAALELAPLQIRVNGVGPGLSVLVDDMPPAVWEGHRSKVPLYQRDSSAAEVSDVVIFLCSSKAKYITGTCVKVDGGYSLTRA
Experimental: The compounds of the invention were tested against the following enzyme library: TcPTR1, LmPTR1, LmDHFR, LcTS, EcTS, CnTS, hTS, DHFR.

TS = TS enzyme inhibition, three-value table lines (species column not resolvable); type: biochemical; details: species column (h or Lm) not resolvable; NI means no inhibition at 190 μM, NI marks ⋄ Δ ▴ undefined; read-out: TS Ki (first value of three-value lines)
[3] = NI means no inhibition at 190 μM, read-out: DHFR h Ki
[4] = NI means no inhibition at 190 μM; read-out: TS Lm Ki
[5] = NI means no inhibition at 190 μM, read-out: PTR1 Tc Ki

T4 sequence (P04818 whole entry): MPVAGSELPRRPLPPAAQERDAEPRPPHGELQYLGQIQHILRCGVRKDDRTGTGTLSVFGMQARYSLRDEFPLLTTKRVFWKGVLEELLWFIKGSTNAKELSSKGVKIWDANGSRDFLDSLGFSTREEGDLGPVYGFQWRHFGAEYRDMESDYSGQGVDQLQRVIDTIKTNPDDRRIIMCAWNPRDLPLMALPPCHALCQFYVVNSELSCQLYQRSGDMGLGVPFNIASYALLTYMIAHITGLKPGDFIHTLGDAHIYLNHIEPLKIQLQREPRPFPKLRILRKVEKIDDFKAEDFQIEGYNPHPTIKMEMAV
T2 sequence (P07382 whole entry): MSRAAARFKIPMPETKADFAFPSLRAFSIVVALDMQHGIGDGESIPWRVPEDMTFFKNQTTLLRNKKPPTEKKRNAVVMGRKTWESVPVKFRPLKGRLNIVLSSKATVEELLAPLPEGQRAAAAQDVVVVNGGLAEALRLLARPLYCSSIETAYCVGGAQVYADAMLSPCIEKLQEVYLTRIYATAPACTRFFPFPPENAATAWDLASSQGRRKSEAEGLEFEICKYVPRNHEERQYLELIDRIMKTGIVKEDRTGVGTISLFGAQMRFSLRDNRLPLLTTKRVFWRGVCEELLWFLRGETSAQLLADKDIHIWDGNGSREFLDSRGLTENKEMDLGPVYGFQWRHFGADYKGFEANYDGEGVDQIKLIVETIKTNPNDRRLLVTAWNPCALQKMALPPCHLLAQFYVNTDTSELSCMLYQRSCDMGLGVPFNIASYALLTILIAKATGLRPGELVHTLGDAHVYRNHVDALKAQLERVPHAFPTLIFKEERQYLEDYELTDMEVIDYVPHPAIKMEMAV
T3 sequence (P07382 whole entry): as above
TcPTR1, sequence (O44029 entry or part of it): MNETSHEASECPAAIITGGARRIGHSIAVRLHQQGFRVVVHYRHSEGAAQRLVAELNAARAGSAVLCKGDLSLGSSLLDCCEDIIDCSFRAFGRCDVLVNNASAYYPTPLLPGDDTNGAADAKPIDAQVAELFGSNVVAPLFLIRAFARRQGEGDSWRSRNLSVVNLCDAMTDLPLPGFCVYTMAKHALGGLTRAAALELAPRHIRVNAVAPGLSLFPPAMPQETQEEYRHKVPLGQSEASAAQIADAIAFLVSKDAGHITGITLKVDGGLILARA

| Ki (h DHFR; [3]) [µM] | Ki (LmDHFR) [µM] | Ki (Lm TS; [4]) [µM] | Ki (TcPTR1; [5]) [µM] | Ki (hTS) [µM] | Ki (LmPTR1) [µM] | Compound | other results |
| --- | --- | --- | --- | --- | --- | --- | --- |
| 54 | 17 | > 190 | 20 | 13 | – | Cc1cc(C(F)(F)F)cc2nc(-c3ccccc3)c(CNc3ccc(C(=O)N4CCC(C(=O)O)CC4)cc3)nc12 | – |
| – | – | – | – | – | – | CCc1nc(N)nc(N)c1-c1ccc(Cl)cc1 [Pyr, pyrimetamine] | RDR [1]: 2.3; % amastigotes (medium value) ([2]; 10 (unit uncertain)): 37.4%; % amastigotes (medium value) ([2]; 20 (unit uncertain)): 26.3% |
| 24 | 75 | > 190 | 38 | 15 | > 190 | CCOC(=O)c1nc2ccccc2nc1CNc1ccc(C(=O)N2CCC(C(=O)O)CC2C(=O)O)cc1 (stereo not drawn) | – |
| 10 | 4 | > 190 | 7 | – | 0.1 | COC(=O)C1CCN(C(=O)c2ccc(NCc3cnc4nc(N)nc(C)c4n3)cc2)CC1 | – |
| – | – | – | – | – | – | CN(Cc1cnc2nc(N)nc(N)c2n1)c1ccc(C(=O)NC(CCC(=O)O)C(=O)O)cc1 (stereo not drawn) | Ki (TcPTR1): 0.11 µM |
| 56 | 40 | > 190 | 75 | 41 | 7 | O=C(O)C1CCN(C(=O)c2ccc(NCc3cnc4cccc(C(F)(F)F)c4n3)cc2)CC1 | – |
| > 190 | 88 | > 190 | 40 | 13 | > 190 | COC(=O)C1CCN(C(=O)c2ccc(NCc3nc4cc(C(F)(F)F)ccc4nc3-c3ccccc3)cc2)C(C(=O)OC)C1 (stereo not drawn) | – |
| – | – | – | – | – | – | COC(=O)C1CCN(C(=O)c2ccc(N(CCO)Cc3cnc4nc(N)nc(N)c4n3)cc2)CC1 | Ki (TS): 64.5 µM |
| – | – | – | – | – | – | CN(Cc1cnc2nc(N)nc(N)c2n1)c1ccc(C(=O)N[C@@H](CCC(=O)O)C(=O)O)cc1 [Mtx, methotrexate] | RDR [1]: 104.1 |
| > 190 | 27 | 86 | 106 | 12 | 6 | CCOC(=O)C1CCCCN1C(=O)c1ccc(NCc2cnc3ccc(C(F)(F)F)cc3n2)cc1 (stereo not drawn) | – |
| – | – | – | – | – | – | COC(=O)C1CCN(C(=O)c2ccc(N(C)Cc3cnc4nc(N)nc(N)c4n3)cc2)CC1 | Ki (h DHFR): 0.8 µM; Ki (Lm TS; read-out: TS Lm Ki; NI means no inhibition at 190 μM): > 190 µM |
